Test results published in PubChem BioAssay AID504816 (The Scripps Research Institute Molecular Screening Center, 2011).
Activity calls are given as the source filed them.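 How the source made its calls: active means compounds that boost mutant procaspase-3 substrate cleavage with EC50 of 10000 nM or lower; inactive means EC50 above 10000 nM.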

Target: Caspase-3 (Homo sapiens) (UniProt P42574)
Experiment: procaspase-3 activation potency, probe candidates – biochemical, absorbance, PC-3 D3A mutant, powder samples, late-stage follow-up (AID 504816)
Conditions: recombinant PC-3 D3A, Ac-DEVD-pNA absorbance 405 nm

Caspase-3 (Homo sapiens), sequence (P42574 whole entry D9A/D28A/D175A): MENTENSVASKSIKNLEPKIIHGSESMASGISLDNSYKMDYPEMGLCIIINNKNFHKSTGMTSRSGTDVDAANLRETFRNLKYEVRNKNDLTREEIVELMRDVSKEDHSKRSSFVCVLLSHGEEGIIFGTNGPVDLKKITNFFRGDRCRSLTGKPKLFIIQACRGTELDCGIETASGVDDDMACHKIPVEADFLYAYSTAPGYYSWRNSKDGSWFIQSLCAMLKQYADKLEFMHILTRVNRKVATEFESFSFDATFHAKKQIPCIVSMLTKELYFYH

Structure (SMILES) | EC50
C=CCn1c(=NC(=O)c2cc(-c3cccs3)nc3ccccc23)sc2cc(S(N)(=O)=O)ccc21 | 3.19 µM
COc1ccccc1Nc1nc2c(C)cccc2cc1C#N | > 85.3 µM (inactive)
CC(NC(=O)c1cc2cc([N+](=O)[O-])ccc2oc1=O)C1CCCO1 (centres undefined) | inactive
CC(=O)Oc1cccc2c1C(=O)c1c(OC(C)=O)cc(C(=O)O)cc1C2=O | inactive
